Columns and labels:
[1] = tested on: Psoriasis mouse model; experiment: IL-23 psoriasis mouse model, Compound 1 by subcutaneous or intradermal injection, symptom score; format: in vivo, mice; conditions: for symptom score: 4 consecutive days, scored on Day 6, scale 0-5
Method: (§1) Psoriasis mouse model was established by intradermal injection of recombinant […] (1 ng/20 μL PBS, per mouse per day for 4 consecutive days) into depilated mice on the back.
On Day 2 after modeling, the psoriasis model mice were randomly divided into 3 groups, with the same number of mice in each group, and divided into a model group, treatment group (the treatment group included a subcutaneous treatment group and an intradermal treatment group), with the model group as a control. […] The model group was injected with 20 μL of normal saline intradermally. All three groups were injected for 4 consecutive days. On Day 6, the symptoms of the model and treatment groups were scored.
(§2) The calculation rule for the number of days was: the number of days will be calculated from the end of modeling, which will be recorded as Day 0, followed by Day 1, Day 2, etc.
(§3) Scoring criteria: 0 points, no symptom; 1 point, skin erythema; 2 points, scattered scurf, 3 points, diffuse dandruff, 4 points, skin sclerosis; 5 points, erythroderma or death.

[2] = tested on: Psoriasis mouse model; conditions: ointment 30 mg applied for 4 consecutive days, scored on Day 6; 0.01%, 0.1%, 0.2%, 0.5%, 1% tested
Method: as §1, §2, §3

[3] = tested on: Psoriasis mouse model; experiment: IL-23 psoriasis mouse model, comparative efficacy of Compound 1 ointment and Flecainide ointment, symptom score; format: in vivo, mice; conditions: 0.1% ointment; for therapeutic effect compared to the model group: 30 mg applied on the back for 4 consecutive days
Method: as §1
Each group was applied with different substances (as shown in Table 1) on the backs of the mice for 4 consecutive days. The symptoms of the model mice and the treatment group mice were scored from Day 1.
The calculation rule or the number of days was: the number of days will be calculated from the end of modeling, which will be recorded as Day 0, followed by Day 1, Day 2, etc.
The formulation and preparation method of Flecainide ointment can be referred to as Example 4, which differed from Example 4 only in that the main drug was replaced with an equivalent amount of Flecainide (wherein the mass concentration of flecainide in the flecainide ointment was 0.1%).
as §3

[4] = tested on: Psoriasis mouse model; conditions: 0.025% ointment, 200 mg applied on the back for 6 consecutive days
Method: Psoriasis mouse model was established by intradermal injection of recombinant TL-23 (1 ng/20 μL PBS, per mouse per day for 4 consecutive days) into depilated mice on the back.
Each group was applied with different substances (as shown in Table 3) on the backs of the mice for 6 consecutive days. From Day 1, the symptoms of the back skin of the model mice and the mice in the treatment group were scored every day.

[5] = 30 mg applied on the back, scale 0-5

Compound: CCCNCC(O)COc1ccccc1C(=O)CCc1ccccc1 (stereo not drawn) [Compound 1, propafenone]
- therapeutic effect in dosing explorations ([1]; intracutaneous injections at 10 μg, 20 μg, 50 μg, 100 μg, 200 μg, 500 μg, 1 mg, 2 mg, 5 mg and 10 mg): had therapeutic effects
- symptom score ([1]; intradermal injection on the back, 0.07 mg per mouse per day): ~2 points
- therapeutic effect compared with the model group and the subcutaneous treatment group ([1]; intradermal injection, 0.07 mg per mouse per day, Day 6): significant therapeutic effect
- symptom score ([1]; subcutaneous injection on the back, 0.07 mg per mouse per day): ~3 points
- effective window dose of ointment (mass concentration) compared to the model group [2]: 0.1%-0.5%
- therapeutic effect compared to the model group [3]: significant therapeutic effect
- symptom score on Day 2 [3, 5]: 2 points
- symptom score on Days 3 to 4 ([3]; 30 mg applied on the back, Days 3 to 4, scale 0-5): 3 points
- symptom score on Days 7 and 8 ([3]; 30 mg applied on the back, Days 7 and 8, scale 0-5): 1 points
- symptom score from Day 5 ([3]; 30 mg applied on the back, from Day 5, scale 0-5): ≤ 2 points

Compound: CCCNC[C@@H](O)COc1ccccc1C(=O)CCc1ccccc1 [Compound 3, R-propafenone]
- treatment effect [4]: the treatment effect was more obvious

Compound: CCCNC[C@H](O)COc1ccccc1C(=O)CCc1ccccc1 [Compound 2, S-propafenone]
- treatment effect [4]: showed no treatment effect

Compound: O=C(NCC1CCCCN1)c1cc(OCC(F)(F)F)ccc1OCC(F)(F)F (stereo not drawn) [Flecainide]
- therapeutic effect compared to the model group [3]: neither the Flecainide ointment nor the ointment alone had a therapeutic effect
- symptom score on Day 2 [3, 5]: 3 points
- symptom score on Days 2 to 7 ([3]; 30 mg applied on the back, Days 2 to 7, scale 0-5): 3 points
